#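 Tested at 5 concentrations; 48 h exposure; 96-well plates; endpoints linearly interpolated, else capped at highest concentration. At the GI50, growth is halved. TGI is the concentration that stops growth completely.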
# What was measured:
# Test in all cases: DTP human tumour cell line panel, 48 h
# [1] = system: IGROV1 ovarian
# [2] = system: PC-3 prostate
# [3] = system: A498 renal
# [4] = system: T-47D breast
# [5] = system: OVCAR-3 ovarian
# [6] = system: NCI-H460 lung
# [7] = system: MDA-MB-231 breast
# [8] = system: CCRF-CEM leukemia
# [9] = system: HT29 colon
# [10] = system: HOP-62 NSCLC
# [11] = system: UACC-257 melanoma
# [12] = system: NCI-H522 lung
# [13] = system: HL-60(TB) leukemia
# [14] = system: NCI/ADR-RES ovarian
# [15] = system: EKVX NSCLC
# [16] = system: DU-145 prostate
# [17] = system: OVCAR-5 ovarian
# [18] = system: SK-MEL-2 melanoma
# [19] = system: OVCAR-4 ovarian
# [20] = system: M14 melanoma
# [21] = system: HCT-116 colon
# [22] = system: UO-31 renal
# [23] = system: OVCAR-8 ovarian
# [24] = system: NCI-H226 lung
# [25] = system: SF-295 CNS
# [26] = system: NCI-H23 lung
# [27] = system: MCF7 breast
# [28] = system: HCC-2998 colon
# [29] = system: HS 578T breast
# [30] = system: 786-0 renal
# [31] = system: RPMI-8226 leukemia
# [32] = system: SF-539 CNS
# [33] = system: ACHN renal
# [34] = system: HCT-15 colon
# [35] = system: K-562 leukemia
# [36] = system: U251 CNS
# [37] = system: RXF 393 renal
# [38] = system: HOP-92 NSCLC
# [39] = system: MOLT-4 leukemia
# [40] = system: SNB-75 CNS
# [41] = system: SNB-19 CNS
# [42] = system: SW-620 colon
# [43] = system: MDA-MB-435
# [44] = system: SK-MEL-5 melanoma
# [45] = system: BT-549 breast
# [46] = system: CAKI-1 renal
# [47] = system: SK-OV-3 ovarian
# [48] = system: SF-268 CNS
# [49] = system: TK-10 renal
# [50] = system: SK-MEL-28 melanoma
# [51] = system: MALME-3M melanoma
# [52] = system: UACC-62 melanoma
# [53] = system: SN12C renal
# [54] = system: KM12 colon
# [55] = system: SR leukemia
# [56] = system: COLO 205 colon
# [57] = system: A549 NSCLC
compound,measurement,setting,value
CN1CCc2c(sc3ncnc(N/N=C/c4ccc(Cl)c(Cl)c4)c23)C1,GI50,[1],15.6 µM
same,TGI,[1],31.8 µM
same,GI50,[2],18.1 µM
same,TGI,[2],43.9 µM
same,GI50,[3],19.9 µM
same,TGI,[3],35.6 µM
same,GI50,[4],19.9 µM
same,TGI,[4],49.9 µM
same,GI50,[5],15.7 µM
same,TGI,[5],30.1 µM
same,GI50,[6],16.4 µM
same,TGI,[6],34.7 µM
same,GI50,[7],12.4 µM
same,TGI,[7],26.8 µM
same,GI50,[8],14 µM
same,TGI,[8],> 100 µM
same,GI50,[9],13.6 µM
same,TGI,[9],29.3 µM
same,GI50,[10],10.2 µM
same,TGI,[10],41.4 µM
same,GI50,[11],14.8 µM
same,TGI,[11],30.2 µM
same,GI50,[12],11.7 µM
same,TGI,[12],28.3 µM
same,GI50,[13],2.04 µM
same,TGI,[13],4.83 µM
same,GI50,[14],14.3 µM
same,TGI,[14],34.1 µM
same,GI50,[15],19.1 µM
same,TGI,[15],39 µM
same,GI50,[16],14.5 µM
same,TGI,[16],28.5 µM
same,GI50,[17],15.3 µM
same,TGI,[17],30.9 µM
same,GI50,[18],38.4 µM
same,TGI,[18],> 100 µM
same,GI50,[19],15.5 µM
same,TGI,[19],30.9 µM
same,GI50,[20],17.6 µM
same,TGI,[20],43.8 µM
same,GI50,[21],13.7 µM
same,TGI,[21],44.4 µM
same,GI50,[22],10.1 µM
same,TGI,[22],22.7 µM
same,GI50,[23],14.1 µM
same,TGI,[23],39.7 µM
same,GI50,[24],77.9 µM
same,TGI,[24],> 100 µM
same,GI50,[25],13 µM
same,TGI,[25],27.9 µM
same,GI50,[26],13.5 µM
same,TGI,[26],31.2 µM
same,GI50,[27],3.94 µM
same,TGI,[27],18.6 µM
same,GI50,[28],9.8 µM
same,TGI,[28],25.7 µM
same,GI50,[29],22.1 µM
same,TGI,[29],65.8 µM
same,GI50,[30],12.4 µM
same,TGI,[30],32.1 µM
same,GI50,[31],17 µM
same,TGI,[31],66.4 µM
same,GI50,[32],13.8 µM
same,TGI,[32],29.8 µM
same,GI50,[33],15.1 µM
same,TGI,[33],31.5 µM
same,GI50,[34],6.61 µM
same,TGI,[34],22.2 µM
same,GI50,[35],12.5 µM
same,TGI,[35],57 µM
same,GI50,[36],17.1 µM
same,TGI,[36],35.8 µM
same,GI50,[37],12.8 µM
same,TGI,[37],28.1 µM
same,GI50,[38],7.63 µM
same,TGI,[38],34.3 µM
same,GI50,[39],11.9 µM
same,TGI,[39],43.6 µM
same,GI50,[40],14.6 µM
same,TGI,[40],28.6 µM
same,GI50,[41],15.4 µM
same,TGI,[41],35.6 µM
same,GI50,[42],12.1 µM
same,TGI,[42],29.8 µM
same,GI50,[43],18.2 µM
same,TGI,[43],34.4 µM
same,GI50,[44],13.7 µM
same,TGI,[44],28.5 µM
same,GI50,[45],14 µM
same,TGI,[45],33 µM
same,GI50,[46],15.2 µM
same,TGI,[46],29.1 µM
same,GI50,[47],17.1 µM
same,TGI,[47],34.8 µM
same,GI50,[48],16.5 µM
same,TGI,[48],39.4 µM
same,GI50,[49],21.2 µM
same,TGI,[49],36.1 µM
same,GI50,[50],13.7 µM
same,TGI,[50],29.8 µM
same,GI50,[51],14.1 µM
same,TGI,[51],28.5 µM
same,GI50,[52],14.9 µM
same,TGI,[52],29.6 µM
same,GI50,[53],11.5 µM
same,TGI,[53],26.3 µM
same,GI50,[54],17.9 µM
same,TGI,[54],34 µM
same,GI50,[55],2.52 µM
same,TGI,[55],8.04 µM
same,GI50,[56],10.6 µM
same,TGI,[56],27.5 µM
same,GI50,[57],11 µM
same,TGI,[57],32.1 µM

# From PubChem BioAssay (NCI)
